This is an account of results in US9181253B2 (The United States of America, as represented by the …, priority 2008, dated 2015).

One may read the Ki as the equilibrium dissociation constant of an inhibitor or competing ligand from its target. In general, inhibition refers to the change of the read-out against control, counted positive when it falls.

Assay [1] addresses T1, hA1AR (Homo sapiens (Human), UniProt P30542). In words: Radioligand membrane binding at hA1AR (Example 6). The settings on record: for Ki: CHO cells expressing hA1AR, [3H]R-PIA, n = 3-5, read-out: Affinity Ki, nM A1; for (% inhibition) A1: percent inhibition of radioligand binding at 10 μM; for inhibition at 10 µM: read-out: (% inhibition) A1. As for the experimental part: (§1) In addition, 800 μg/mL Geneticin and 500 μg/mL hygromycin were added to the A2A media and to the A1 and A3 media, respectively. […] The concentration of protein was determined using a BCA Protein Assay Kit from Pierce Biotechnology (Rockford, Ill.).
(§2) Radioligand binding assays at A1, A2A, and A3ARs were performed according to the procedures described previously.
(§3) All of the filters were washed 3 times with Tris-HCl, pH 7.5. […] Filters for A3AR binding were counted using a PerkinElmer Cobra II γ-counter.
(§4) Binding and functional parameters were calculated using Prism 5.0 software (GraphPAD, San Diego, Calif., USA). IC50 values obtained from competition curves were converted to Ki values using the Cheng-Prusoff equation. Data were expressed as mean±standard error.

The next assay has as its target hA2AAR (Homo sapiens (Human), UniProt P29274). Put plainly: Radioligand membrane binding at hA2AAR (Example 6). The following applies: for Ki: HEK293 cells expressing hA2AAR, [3H]CGS21680, n = 3-5, read-out: Affinity Ki, nM A2A; for inhibition at 10 µM: read-out: (% inhibition) A2A; for (% inhibition) A2A: percent inhibition of radioligand binding at 10 μM. As for the experimental part: as §1, §2, §3, §4

In a further assay the target is hA3AR (Homo sapiens (Human), UniProt P0DMS8). In words: Radioligand membrane binding at hA3AR (Example 6). The settings on record: for Ki: CHO cells expressing hA3AR, [125I]I-AB-MECA, n = 3-5, read-out: Affinity Ki, nM A3.
Sequence of hA3AR (P0DMS8 whole entry): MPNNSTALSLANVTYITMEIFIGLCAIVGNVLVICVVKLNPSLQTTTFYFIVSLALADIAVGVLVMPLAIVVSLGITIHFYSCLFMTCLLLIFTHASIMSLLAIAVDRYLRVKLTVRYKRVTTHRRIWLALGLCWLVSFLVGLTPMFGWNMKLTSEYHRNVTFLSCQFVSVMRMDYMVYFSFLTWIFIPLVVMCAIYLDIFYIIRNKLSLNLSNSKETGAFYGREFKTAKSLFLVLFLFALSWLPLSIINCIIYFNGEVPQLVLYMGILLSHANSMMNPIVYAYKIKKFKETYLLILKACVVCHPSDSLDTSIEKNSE
In assay [2] the target is T1, hA1AR. In words: A1AR functional assay, inhibition of forskolin-stimulated cyclic AMP production in AR-transfected CHO cells. The following applies: for inhibition at 10 µM: CHO, read-out: % Inhibition, cyclic AMP A1; for % Inhibition, cyclic AMP A1: maximal efficacy at 10 μM, in comparison to effect (100%) of full agonist CPA at 10 μM, n = 3-5. In kind it is cell-based.
Description: CHO cells that expressed the recombinant human or rat A3AR or the human A1 or A2BAR were harvested by trypsinization. After centrifugation and resuspended in medium, cells were planted in 24-well plates in 1.0 mL medium. […] The reaction was terminated by removing the supernatant, and cells were lysed upon the addition of 200 μL of 0.1 M ice-cold HCl. The cell lysate was resuspended and stored at −20° C. For determination of cyclic AMP production, protein kinase A (PKA) was incubated with [^3H]cyclic AMP (2 nM) in K2HPO4/EDTA buffer (K2HPO4, 150 mM; EDTA, 10 mM), 20 μL of the cell lysate, and 30 μL 0.1 M HCl or 50 μL of cyclic AMP solution (0-16 pmol/200 μL for standard curve). Bound radioactivity was separated by rapid filtration through Whatman GF/C filters and washed once with cold buffer. Bound radioactivity was measured by liquid scintillation spectrometry.
Intracellular cAMP levels were measured with a competitive protein binding method.

T1 sequence (P30542 whole entry): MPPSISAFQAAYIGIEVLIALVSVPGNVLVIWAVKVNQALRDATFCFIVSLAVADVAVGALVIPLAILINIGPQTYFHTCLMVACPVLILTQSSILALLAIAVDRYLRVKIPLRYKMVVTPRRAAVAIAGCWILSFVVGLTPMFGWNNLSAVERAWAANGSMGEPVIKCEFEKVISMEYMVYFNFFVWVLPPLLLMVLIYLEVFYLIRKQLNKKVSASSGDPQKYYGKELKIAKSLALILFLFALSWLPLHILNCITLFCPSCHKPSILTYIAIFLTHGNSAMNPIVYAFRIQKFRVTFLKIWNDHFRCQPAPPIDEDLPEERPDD
Sequence of hA2AAR (P29274 whole entry): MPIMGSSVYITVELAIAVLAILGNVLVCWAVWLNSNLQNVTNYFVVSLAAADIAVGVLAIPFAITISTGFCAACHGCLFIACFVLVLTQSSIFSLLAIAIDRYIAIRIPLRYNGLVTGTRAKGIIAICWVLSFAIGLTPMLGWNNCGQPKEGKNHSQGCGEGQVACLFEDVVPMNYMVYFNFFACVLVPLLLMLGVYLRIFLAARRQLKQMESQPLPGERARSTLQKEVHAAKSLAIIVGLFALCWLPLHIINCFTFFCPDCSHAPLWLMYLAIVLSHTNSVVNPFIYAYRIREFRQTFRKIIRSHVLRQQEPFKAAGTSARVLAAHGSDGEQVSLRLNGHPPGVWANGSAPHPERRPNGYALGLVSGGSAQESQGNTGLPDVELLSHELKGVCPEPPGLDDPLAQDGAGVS
Description for hA3AR: Chinese hamster ovary (CHO) cells stably expressing either the recombinant hA1 or hA3AR and human embryonic kidney (HEK) 293 cells stably expressing the human (h) A2AAR were cultured in DMEM and F12 (1:1), supplemented with 10% fetal bovine serum, 100 units/mL penicillin, 100 μg/mL streptomycin, and 2 μmol/mL glutamine. In addition, 800 μg/mL Geneticin and 500 μg/mL hygromycin were added to the A2A media and to the A1 and A3 media, respectively. […] The concentration of protein was determined using a BCA Protein Assay Kit from Pierce Biotechnology (Rockford, Ill.).
The mixtures were incubated at 25° C. for 60 min. Binding reactions were terminated by filtration through Whatman GF/B filters under a reduced pressure using a MT-24 cell harvester (Brandell, Gaithersburg, Md.). Filters were washed three times with 5 ml of 50 mM ice-cold Tris-HCl buffer (pH 7.5). […] All of the filters were washed 3 times with Tris-HCl, pH 7.5. […] Filters for A3AR binding were counted using a PerkinElmer Cobra II γ-counter.

Take `O[C@@H]1[C@H](O)[C@@H]2C[C@@H]2[C@H]1n1cnc2c(N[C@H](CC3CC3)C3CC3)nc(Cl)nc21` [Compound 218, (1R,2R,3S,4R,5S)-4-(2-Chloro-6-((R)-1,2-dicyclopropylethylamino)-9H-purin-9-yl)bicyclo[3.1.0]hexane-2,3-diol]: the Ki worked out at 490 ± 90 nM on hA1AR [1], 4840 ± 400 nM on hA2AAR and 1760 ± 210 nM on hA3AR. The inhibition at 10 µM at hA1AR [2] was 18.4 ± 2.1%.

Regarding `O[C@@H]1[C@H](O)[C@@H]2C[C@@H]2[C@H]1n1cnc2c(NCCCF)nc(Cl)nc21` [Compound 116, (1R,2R,3S,4R,5S)-4-(2-Chloro-6-(3-fluoropropylamino)-9H-purin-9-yl)bicyclo[3.1.0]hexane-2,3-diol], the results for the Ki at hA1AR [1] and at hA3AR were 72.7 ± 28 nM and 32.4 ± 6.7 nM, respectively. Also, the inhibition at 10 µM at hA1AR [2] is 23.2 ± 2.6%.

Consider `O[C@@H]1[C@H](O)[C@@H]2C[C@@H]2[C@H]1n1cnc2c(NCc3cc(F)ccc3F)nc(Cl)nc21` [Compound 125, (1R,2R,3S,4R,5S)-4-(2-chloro-6-(2,5-difluorobenzylamino)-9H-purin-9-yl)bicyclo[3.1.0]hexane-2,3-diol], for which the figures for the Ki at hA1AR [1] and on hA3AR were 3580 ± 220 nM and 114 ± 45 nM, respectively. Besides, the inhibition at 10 µM on hA2AAR stood at 46%.

`OCc1cc(F)c(F)cc1CNc1nc(Cl)nc2c1ncn2[C@@]12C[C@H](O)[C@H](O)[C@@H]1C2` [Compound 128]: the Ki came out at 1910 ± 310 nM on hA1AR [1], 7510 ± 690 nM on hA2AAR and 40.4 ± 13.1 nM at hA3AR.

Take `O[C@@H]1[C@H](O)[C@@H]2C[C@@H]2[C@H]1n1cnc2c(N[C@@H](CC3CC3)C3CC3)nc(Cl)nc21` [Compound 219, (1R,2R,3S,4R,5S)-4-(2-Chloro-6-((S)-1,2-dicyclopropylethylamino)-9H-purin-9-yl)bicyclo[3.1.0]hexane-2,3-diol]: the Ki at hA1AR [1] is 170 ± 20 nM; at hA2AAR, 2550 ± 170 nM; on hA3AR, 550 ± 50 nM. On hA1AR [2], the inhibition at 10 µM was 24 ± 5.2%.

`COc1ccc(F)c(F)c1CNc1nc(Cl)nc2c1ncn2[C@H]1[C@H](O)[C@H](O)[C@@H]2C[C@@H]21` [Compound 126, (1R,2R,3S,4R,5S)-4-(2-chloro-6-(2,3-difluoro-6-methoxybenzylamino)-9H-purin-9-yl)bicyclo[3.1.0]hexane-2,3-diol]: the Ki at hA1AR [1] is 1260 ± 240 nM; on hA3AR, 16.5 ± 2.8 nM. The inhibition at 10 µM on hA2AAR stood at 38%.

On to `O[C@@H]1[C@H](O)[C@@H]2C[C@@H]2[C@H]1n1cnc2c(N[C@H](c3ccccc3)C3CC3)nc(Cl)nc21` [Compound 221, (1R,2R,3S,4R,5S)-4-(2-Chloro-6-((S)-cyclopropylphenylmethylamino)-9H-purin-9-yl)bicyclo[3.1.0]hexane-2,3-diol], for which, at hA1AR [1], the “(% inhibition) A1” value is “(50 ± 5%)”. The “(% inhibition) A2A” value at hA2AAR is listed as “(36 ± 4%)”. The “% Inhibition, cyclic AMP A1” value on hA1AR [2] is listed as −2.4 ± 3.7%.

In the case of `O[C@@H]1[C@H](O)[C@@H]2C[C@@H]2[C@H]1n1cnc2c(NCC3CC3)nc(Cl)nc21` [Compound 119, (1R,2R,3S,4R,5S)-4-(2-Chloro-6-(cyclopropylmethylamino)-9H-purin-9-yl)bicyclo[3.1.0]hexane-2,3-diol], the Ki was found to be 68.4 ± 8.9 nM on hA1AR [1], 4410 ± 1090 nM on hA2AAR and 8.9 ± 1.9 nM on hA3AR. At hA1AR [2], the inhibition at 10 µM stood at 81 ± 21.1%.

`Nc1nc(Cl)nc2c1ncn2[C@H]1[C@H](O)[C@H](O)[C@@H]2C[C@@H]21` [Compound 107, (1R,2R,3S,4R,5S)-4-(6-Amino-2-chloro-9H-purin-9-yl)-bicyclo[3.1.0]hexane-2,3-diol]: the Ki on hA1AR [1] stood at 350 ± 90 nM; at hA2AAR it was 3140 ± 450 nM; on hA3AR it was 160 ± 42 nM. For the same compound, the inhibition at 10 µM on hA1AR [2] is 68.1 ± 4.4%.

Take `CCNc1nc(Cl)nc2c1ncn2[C@H]1[C@H](O)[C@H](O)[C@@H]2C[C@@H]21` [Compound 115, (1R,2R,3S,4R,5S)-4-(2-Chloro-6-(ethylamino)-9H-purin-9-yl)bicyclo[3.1.0]hexane-2,3-diol]: the figures for the Ki on hA1AR [1] and at hA3AR were 930 ± 110 nM and 6.6 ± 1.6 nM, respectively. Also, the “(% inhibition) A2A” value at hA2AAR is listed as “(11%)”.

As to `O[C@@H]1[C@H](O)[C@@H]2C[C@@H]2[C@H]1n1cnc2c(NC(C3CCCC3)C3CCCC3)nc(Cl)nc21` [Compound 211, (1R,2R,3S,4R,55)-4-(2-Chloro-6-(dicyclopentylmethylamino)-9H-purin-9-yl)bicyclo[3.1.0]hexane-2,3-diol], the “(% inhibition) A1” value at hA1AR [1] is “(34 ± 3%)”. In addition, the “(% inhibition) A2A” value at hA2AAR is reported as “(13 ± 3%)”. Moreover, the “(% inhibition) A3” value on hA3AR (percent inhibition of radioligand binding at 10 μM) is on record as “(48 ± 2%)”.

In the case of `O[C@@H]1[C@H](O)[C@@H]2C[C@@H]2[C@H]1n1cnc2c(NCc3ccccc3OCCF)nc(Cl)nc21` [Compound 123, (1R,2R,3S,4R,5S)-4-(2-chloro-6-(2-(2-fluoroethoxy)benzylamino)-9H-purin-9-yl)bicyclo[3.1.0]hexane-2,3-diol], the Ki at hA3AR was determined as 10.3 ± 1.5 nM.

In the case of `O[C@@H]1[C@H](O)[C@@H]2C[C@@H]2[C@H]1n1cnc2c(NCc3ccccc3F)nc(Cl)nc21` [Compound 122, (1R,2R,3S,4R,5S)-4-(2-Chloro-6-(2-fluorobenzylamino)-9H-purin-9-yl)bicyclo[3.1.0]hexane-2,3-diol], the Ki turned out to be 4790 ± 670 nM at hA1AR [1] and 41.5 ± 1 nM at hA3AR.

Regarding “(1R,2R,3S,4R,5S)-4-(2-Chloro-6-(exo-norbornyl)-9H-purin-9-yl)bicyclo[3.1.0]hexane-2,3-diol [Compound 114]”, the Ki on hA1AR [1] was 200 ± 30 nM; on hA2AAR, 4080 ± 170 nM; at hA3AR it was 236 ± 43 nM. For the same compound, at hA1AR [2], the “% Inhibition, cyclic AMP A1” value was 27.8 ± 6.2%.

`CC(C)Nc1nc(Cl)nc2c1ncn2[C@H]1[C@H](O)[C@H](O)[C@@H]2C[C@@H]21` [Compound 117, (1R,2R,3S,4R,5S)-4-(2-Chloro-6-(isopropylamino)-9H-purin-9-yl)bicyclo[3.1.0]hexane-2,3-diol]: the figures for the Ki at hA1AR [1] and at hA3AR were 72.2 ± 16.4 nM and 12 ± 1 nM, respectively. In addition, the “(% inhibition) A2A” value on hA2AAR is given as “(39%)”. Moreover, the inhibition at 10 µM at hA1AR [2] amounted to 50.5 ± 6.4%.

On to `COc1cc(F)c(F)cc1CNc1nc(Cl)nc2c1ncn2[C@H]1[C@H](O)[C@H](O)[C@@H]2C[C@@H]21` [Compound 127, (1R,2R,3S,4R,5S)-4-(2-chloro-6-(4,5-difluoro-2-methoxybenzylamino)-9H-purin-9-yl)bicyclo[3.1.0]hexane-2,3-diol], for which the inhibition at 10 µM stood at 41% on hA1AR [1] and 30% on hA2AAR. On hA3AR, the Ki worked out at 83.2 ± 35.7 nM.

Turning to `O[C@@H]1[C@H](O)[C@@H]2C[C@@H]2[C@H]1n1cnc2c(NC3CCC3)nc(Cl)nc21` [Compound 109, (1R,2R,3S,4R,5S)-4-(2-Chloro-6-(cyclobutylamino)-9H-purin-9-yl)bicyclo[3.1.0]hexane-2,3-diol], the Ki was found to be 51.6 ± 12.6 nM at hA1AR [1], 3020 ± 90 nM at hA2AAR and 5.9 ± 0.5 nM on hA3AR.

For the compound `OC[C@H]1O[C@@H](n2cnc3c(NC4CCCC4)ncnc32)[C@H](O)[C@@H]1O` [Compound 235a, N^6-cyclopentyladenosine, reference compound], the “% Inhibition, cyclic AMP A1” value at hA1AR [2] was 100 ± 2.6%.

With `O[C@@H]1[C@H](O)[C@@H]2C[C@@H]2[C@H]1n1cnc2c(NCc3cccc(OCCF)c3)nc(Cl)nc21` [Compound 124, (1R,2R,3S,4R,5S)-4-(2-chloro-6-(3-(2-fluoroethoxy)benzylamino)-9H-purin-9-yl)bicyclo[3.1.0]hexane-2,3-diol], the inhibition at 10 µM at hA1AR [1] was determined as 34%; at hA2AAR, 32%. For the same compound, on hA3AR, the Ki amounted to 15.2 ± 3 nM.

Take `O[C@@H]1[C@H](O)[C@@H]2C[C@@H]2[C@H]1n1cnc2c(N[C@@H](c3ccccc3)C3CC3)nc(Cl)nc21` [Compound 220, (1R,2R,3S,4R,5S)-4-(2-Chloro-6-((R)-cyclopropylphenylmethylamino)-9H-purin-9-yl)bicyclo[3.1.0]hexane-2,3-diol]: on hA1AR [1], the Ki was found to be 3000 ± 440 nM. On hA2AAR, the “(% inhibition) A2A” value is reported as “(46 ± 4%)”. Further, at hA1AR [2], the “% Inhibition, cyclic AMP A1” value is given as −7.4 ± 6.0%.

As to `O[C@@H]1[C@H](O)[C@@H]2C[C@@H]2[C@H]1n1cnc2c(NC3CCCCCCC3)nc(Cl)nc21` [Compound 112, (1R,2R,3S,4R,5S)-4-(2-Chloro-6-(cyclooctylamino)-9H-purin-9-yl)bicyclo[3.1.0]hexane-2,3-diol], the values for the Ki at hA1AR [1] and on hA3AR were 760 ± 110 nM and 1530 ± 60 nM, respectively. Besides, the inhibition at 10 µM on hA1AR [2] was 40.1 ± 9%.

For the compound `O[C@@H]1[C@H](O)[C@@H]2C[C@@H]2[C@H]1n1cnc2c(NCC(C3CC3)C3CC3)nc(Cl)nc21` [Compound 207, (1R,2R,3S,4R,5S)-4-(2-Chloro-6-(2,2-dicyclopropylethylamino)-9H-purin-9-yl)bicyclo[3.1.0]hexane-2,3-diol], the Ki on hA1AR [1] was 780 ± 100 nM; at hA3AR it was 670 ± 10 nM. Moreover, at hA1AR [2], the inhibition at 10 µM was -9 ± 4.1%.

With `CC(Nc1nc(Cl)nc2c1ncn2[C@H]1[C@H](O)[C@H](O)[C@@H]2C[C@@H]21)C1CC1` (stereo partly drawn) [Compound 120, (1R,2R,3S,4R,5S)-4-(2-Chloro-6-(1-cyclopropylethylamino)-9H-purin-9-yl)bicyclo[3.1.0]hexane-2,3-diol], the Ki turned out to be 86.8 ± 23.7 nM on hA1AR [1] and 110 ± 17 nM at hA3AR. In addition, at hA2AAR, the “(% inhibition) A2A” value was “(41%)”.
